According to patent US10800791B2, “Triazole ACC inhibitors and uses thereof” (Gilead Apollo, LLC, priority 2015, dated 2020):
Values after ≈ are worked out from the molar mass of the structure shown. Read-outs that look alike come from different tables or passages of the source.

Experiments:
[1] = test system: Phytophthora capsici (Pc); experiment: Growth inhibition assay of fungal pathogens, Pc; assay type: cell-based; conditions: for IC90: 48 h
Summary of the method: (§1)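 Pathogen growth in 17% V8 broth is measured by OD600 at 24 and 48 hours, after blank subtraction, in the presence of compound at 50, 10 and 2 ppm or 2, 0.4 and 0.08 ppm. Inhibition in percent comes from 48-hour readings against the DMSO control.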

C. parapsilosis = experiment: Antifungal Activity Assay (broth microtiter MIC), C. parapsilosis; assay type: cell-based, Candida parapsilosis; conditions: for MIC: Lodderomyces parapsilosis, ATCC22019, 48 h
Summary of the method: (§2)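 MICs were scored by eye at 48 h relative to the growth control. Plates followed CLSI M27-A3, with Candida suspensions in RPMI 1640+MOPS giving a final 2.5×10^3 CFU/mL; the colonies came from Sabouraud agar grown overnight at 35 °C.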

C. krusei = experiment: Antifungal Activity Assay (broth microtiter MIC), C. krusei; assay type: cell-based, Candida krusei; conditions: for MIC: Pichia kudriavzevii, ATCC6258, 48 h
Summary of the method: as §2

Rhizoctonia solani (Rs) = experiment: Growth inhibition assay of fungal pathogens, Rs; assay type: cell-based; conditions: for IC90: 48 h
[2] = test system: Fusarium virguliforme (Fv); experiment: Growth inhibition assay of fungal pathogens, Fv; assay type: cell-based; conditions: for IC90: 48 h
Summary of the method: as §1

[3] = test system: Fusarium moniliforme (Fm); experiment: Growth inhibition assay of fungal pathogens, Fm; assay type: cell-based; conditions: for IC90: Fusarium verticillioides, 48 h, read-out: Concentration at 90% Inhibition Fm
Summary of the method: as §1

[4] = test system: Collectotrichum graminicola (Cg); experiment: Growth inhibition assay of fungal pathogens, Cg; assay type: cell-based; conditions: growth inhibition at 48 hours vs 2% DMSO control; for IC90: 48 h
Summary of the method: as §1

Botrtyis cinerea (Bc) = experiment: Growth inhibition assay of fungal pathogens, Bc; assay type: cell-based; conditions: growth inhibition at 48 hours vs 2% DMSO control; for IC90: 48 h
Summary of the method: as §1

fungal (fACC2) = fungal (fACC2) (UniProt Q00955); conditions: read-out: fACC2 (in vitro ACC2 Inhibition Assay, IC50); Table 2b, additional results; ADP-Glo, 5 nM ACC2, 20 μM ATP, 20 μM acetyl-CoA
Sequence of fungal (fACC2) (Q00955 whole entry): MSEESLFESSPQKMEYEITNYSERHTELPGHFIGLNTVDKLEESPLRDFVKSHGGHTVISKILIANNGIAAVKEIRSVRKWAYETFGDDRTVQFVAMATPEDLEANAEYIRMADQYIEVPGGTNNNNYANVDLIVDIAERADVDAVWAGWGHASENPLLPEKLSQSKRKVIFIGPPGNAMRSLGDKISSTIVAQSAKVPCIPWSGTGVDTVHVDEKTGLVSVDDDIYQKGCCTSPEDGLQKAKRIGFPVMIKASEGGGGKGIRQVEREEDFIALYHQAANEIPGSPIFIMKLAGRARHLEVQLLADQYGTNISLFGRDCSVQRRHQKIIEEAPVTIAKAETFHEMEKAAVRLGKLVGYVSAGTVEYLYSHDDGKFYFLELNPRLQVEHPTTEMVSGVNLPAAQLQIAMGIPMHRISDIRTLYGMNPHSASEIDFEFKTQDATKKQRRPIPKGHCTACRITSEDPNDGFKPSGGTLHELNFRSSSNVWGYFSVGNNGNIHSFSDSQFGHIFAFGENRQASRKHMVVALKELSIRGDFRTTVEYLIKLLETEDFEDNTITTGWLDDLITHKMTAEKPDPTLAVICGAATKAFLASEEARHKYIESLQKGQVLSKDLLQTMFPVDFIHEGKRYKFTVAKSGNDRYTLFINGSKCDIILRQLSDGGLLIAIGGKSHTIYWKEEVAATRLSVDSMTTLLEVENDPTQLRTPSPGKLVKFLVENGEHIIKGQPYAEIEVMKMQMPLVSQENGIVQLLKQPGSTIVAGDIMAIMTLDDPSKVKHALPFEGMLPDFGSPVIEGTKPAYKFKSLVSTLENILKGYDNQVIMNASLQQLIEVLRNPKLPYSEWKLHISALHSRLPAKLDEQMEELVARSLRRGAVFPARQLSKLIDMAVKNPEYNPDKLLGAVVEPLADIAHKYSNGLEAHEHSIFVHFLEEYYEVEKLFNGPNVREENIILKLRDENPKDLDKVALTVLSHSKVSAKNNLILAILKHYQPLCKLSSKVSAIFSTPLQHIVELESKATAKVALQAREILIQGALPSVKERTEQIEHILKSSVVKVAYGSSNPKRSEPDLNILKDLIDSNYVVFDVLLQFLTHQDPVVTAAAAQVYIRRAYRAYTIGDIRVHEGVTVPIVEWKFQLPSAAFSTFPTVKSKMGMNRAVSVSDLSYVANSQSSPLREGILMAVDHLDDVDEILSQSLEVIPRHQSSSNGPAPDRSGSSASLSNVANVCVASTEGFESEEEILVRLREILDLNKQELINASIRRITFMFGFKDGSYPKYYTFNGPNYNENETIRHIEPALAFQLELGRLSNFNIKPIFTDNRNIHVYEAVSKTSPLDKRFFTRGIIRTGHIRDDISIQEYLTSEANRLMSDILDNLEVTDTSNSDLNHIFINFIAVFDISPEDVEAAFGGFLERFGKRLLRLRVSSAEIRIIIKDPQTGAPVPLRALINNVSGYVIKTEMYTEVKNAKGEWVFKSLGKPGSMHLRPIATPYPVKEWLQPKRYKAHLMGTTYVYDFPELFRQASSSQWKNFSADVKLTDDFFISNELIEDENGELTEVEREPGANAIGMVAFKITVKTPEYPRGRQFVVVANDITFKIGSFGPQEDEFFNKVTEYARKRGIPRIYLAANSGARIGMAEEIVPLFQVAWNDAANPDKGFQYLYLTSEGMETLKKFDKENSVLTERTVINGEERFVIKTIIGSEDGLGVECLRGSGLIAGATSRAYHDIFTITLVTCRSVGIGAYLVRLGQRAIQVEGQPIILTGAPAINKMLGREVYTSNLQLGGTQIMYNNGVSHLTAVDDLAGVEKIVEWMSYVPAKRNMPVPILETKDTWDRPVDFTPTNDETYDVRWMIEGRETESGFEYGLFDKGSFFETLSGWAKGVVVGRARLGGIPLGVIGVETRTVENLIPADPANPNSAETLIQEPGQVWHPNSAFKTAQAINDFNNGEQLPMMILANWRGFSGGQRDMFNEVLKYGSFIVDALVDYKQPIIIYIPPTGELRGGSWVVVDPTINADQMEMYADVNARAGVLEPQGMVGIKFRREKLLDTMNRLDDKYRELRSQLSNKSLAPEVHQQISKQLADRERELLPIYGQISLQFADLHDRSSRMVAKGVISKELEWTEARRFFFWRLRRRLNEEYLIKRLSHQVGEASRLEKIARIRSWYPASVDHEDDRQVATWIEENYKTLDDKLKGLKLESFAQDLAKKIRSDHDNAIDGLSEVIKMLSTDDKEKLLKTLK

human (hACC2) = human (hACC2) (Homo sapiens, UniProt O00763); experiment: In vitro ACC inhibition assay (ADP-Glo), hACC2; assay type: biochemical; conditions: Table 2b, additional results, 5 nM ACC2, 20 μM ATP, 20 μM acetyl-CoA
Sequence of human (hACC2) (O00763 whole entry): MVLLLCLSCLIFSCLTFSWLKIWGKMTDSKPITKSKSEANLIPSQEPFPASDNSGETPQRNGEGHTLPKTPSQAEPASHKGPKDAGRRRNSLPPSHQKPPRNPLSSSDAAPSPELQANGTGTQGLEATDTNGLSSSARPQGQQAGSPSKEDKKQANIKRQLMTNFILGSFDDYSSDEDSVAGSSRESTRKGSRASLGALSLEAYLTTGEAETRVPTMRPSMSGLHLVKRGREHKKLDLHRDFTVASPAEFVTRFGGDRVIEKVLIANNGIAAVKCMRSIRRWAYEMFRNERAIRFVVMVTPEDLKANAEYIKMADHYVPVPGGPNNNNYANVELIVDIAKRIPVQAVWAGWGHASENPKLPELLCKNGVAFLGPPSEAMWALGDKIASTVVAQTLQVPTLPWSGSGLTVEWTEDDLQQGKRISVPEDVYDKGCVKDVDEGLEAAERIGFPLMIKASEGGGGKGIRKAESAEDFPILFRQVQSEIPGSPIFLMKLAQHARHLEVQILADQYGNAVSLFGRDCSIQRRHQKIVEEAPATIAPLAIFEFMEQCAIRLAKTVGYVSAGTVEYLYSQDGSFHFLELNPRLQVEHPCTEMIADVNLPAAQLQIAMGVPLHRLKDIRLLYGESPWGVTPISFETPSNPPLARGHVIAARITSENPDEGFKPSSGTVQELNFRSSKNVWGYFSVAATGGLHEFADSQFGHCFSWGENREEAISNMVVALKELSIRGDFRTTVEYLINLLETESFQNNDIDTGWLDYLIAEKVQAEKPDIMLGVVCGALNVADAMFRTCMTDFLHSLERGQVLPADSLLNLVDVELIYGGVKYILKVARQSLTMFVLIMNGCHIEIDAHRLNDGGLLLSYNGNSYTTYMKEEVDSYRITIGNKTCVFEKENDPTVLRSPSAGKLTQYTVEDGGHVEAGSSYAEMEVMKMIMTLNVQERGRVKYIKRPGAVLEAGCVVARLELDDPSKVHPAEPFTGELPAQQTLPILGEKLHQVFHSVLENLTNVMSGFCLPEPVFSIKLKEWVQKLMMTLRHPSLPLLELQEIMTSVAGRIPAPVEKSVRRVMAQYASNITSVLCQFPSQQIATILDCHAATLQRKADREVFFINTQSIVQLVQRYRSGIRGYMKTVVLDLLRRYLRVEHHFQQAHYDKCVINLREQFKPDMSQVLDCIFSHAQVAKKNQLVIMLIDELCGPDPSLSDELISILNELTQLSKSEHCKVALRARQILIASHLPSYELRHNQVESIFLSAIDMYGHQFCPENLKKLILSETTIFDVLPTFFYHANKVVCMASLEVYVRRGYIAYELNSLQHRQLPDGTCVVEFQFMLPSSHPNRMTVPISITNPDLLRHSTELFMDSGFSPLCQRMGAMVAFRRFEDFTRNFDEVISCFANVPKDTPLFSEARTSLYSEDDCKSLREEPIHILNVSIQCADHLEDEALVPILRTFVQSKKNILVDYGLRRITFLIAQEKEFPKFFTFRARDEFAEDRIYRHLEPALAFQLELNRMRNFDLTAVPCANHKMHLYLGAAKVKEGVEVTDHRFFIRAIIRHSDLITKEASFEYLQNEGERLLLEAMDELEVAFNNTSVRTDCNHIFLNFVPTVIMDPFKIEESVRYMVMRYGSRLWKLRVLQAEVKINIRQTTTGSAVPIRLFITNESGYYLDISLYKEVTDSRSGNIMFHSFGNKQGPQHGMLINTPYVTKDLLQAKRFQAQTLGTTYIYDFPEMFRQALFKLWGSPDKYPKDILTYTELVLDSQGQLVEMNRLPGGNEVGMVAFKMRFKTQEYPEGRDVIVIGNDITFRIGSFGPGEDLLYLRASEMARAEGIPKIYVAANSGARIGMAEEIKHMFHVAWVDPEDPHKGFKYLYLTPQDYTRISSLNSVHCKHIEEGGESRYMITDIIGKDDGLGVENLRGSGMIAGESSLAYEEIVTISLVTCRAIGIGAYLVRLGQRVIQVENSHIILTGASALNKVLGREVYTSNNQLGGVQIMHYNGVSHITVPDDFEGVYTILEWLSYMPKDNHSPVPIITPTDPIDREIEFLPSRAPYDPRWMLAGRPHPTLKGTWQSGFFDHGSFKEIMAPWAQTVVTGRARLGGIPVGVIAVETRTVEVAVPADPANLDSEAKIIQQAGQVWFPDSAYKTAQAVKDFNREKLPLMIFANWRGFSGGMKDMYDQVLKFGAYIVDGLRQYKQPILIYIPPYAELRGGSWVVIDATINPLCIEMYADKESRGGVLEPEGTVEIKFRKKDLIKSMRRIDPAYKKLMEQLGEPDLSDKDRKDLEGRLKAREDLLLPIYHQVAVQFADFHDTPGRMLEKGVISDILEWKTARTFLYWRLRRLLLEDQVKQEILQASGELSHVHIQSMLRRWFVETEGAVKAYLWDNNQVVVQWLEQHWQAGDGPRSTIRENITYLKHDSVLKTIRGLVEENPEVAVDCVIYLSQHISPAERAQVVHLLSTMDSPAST
Experimental: The detailed procedure is as follows. […] 10 μL ADP glo reagent was added. […] 20 μL kinase detection reagent was added.

C. albicans = experiment: Antifungal Activity Assay (broth microtiter MIC), C. albicans; assay type: cell-based, Candida albicans; conditions: for MIC: Candida albicans, ATCC90028, 48 h
Summary of the method: as §2

Diplodia maydis (Dm) = experiment: Growth inhibition assay of fungal pathogens, Dm; assay type: cell-based; conditions: growth inhibition at 48 hours vs 2% DMSO control; for IC90: Stenocarpella maydis, 48 h
Summary of the method: as §1

Septoria tritici (St) = experiment: Growth inhibition assay of fungal pathogens, St; assay type: cell-based; conditions: growth inhibition at 48 hours vs 2% DMSO control; for IC90: Zymoseptoria tritici, 48 h
Summary of the method: as §1

[5] = growth inhibition at 48 hours vs 2% DMSO control
[6] = Table 3b (additional results), 3 replicates, MIC recorded at 48 h
[7] = Fusarium moniliforme, growth inhibition at 48 hours vs 2% DMSO control
[8] = growth inhibition at 48 hours vs 2% DMSO control, read-out: Concentration at 90% Inhibition Pc
[9] = Table 3b (additional results), ATCC 22019, 3 replicates, MIC recorded at 48 h, read-out: MIC, C. parapsilosis ATCC 22019
[10] = Table 3b (additional results), ATCC 6258, 3 replicates, MIC recorded at 48 h, read-out: MIC, C. krusei ATCC 6258
[11] = mycelial plugs, growth inhibition at 48 hours vs 2% DMSO control, read-out: Concentration at 90% Inhibition Rs
[12] = growth inhibition at 48 hours vs 2% DMSO control, read-out: Concentration at 90% Inhibition Fv
[13] = Collectotrichum graminicola, read-out: Concentration at 90% Inhibition Cg
[14] = Botrtyis cinerea, read-out: Concentration at 90% Inhibition Bc
[15] = Table 3b (additional results), ATCC 90028, 3 replicates, MIC recorded at 48 h, read-out: MIC, C. albicans ATCC 90028
[16] = Diplodia maydis, read-out: Concentration at 90% Inhibition Dm
[17] = Septoria tritici, read-out: Concentration at 90% Inhibition St
[18] = read-out: Concentration at 90% Inhibition Pc, Phytophthora capsici, growth inhibition at 48 hours vs 2% DMSO control
[19] = read-out: MIC, C. parapsilosis ATCC 22019, Table 3b (additional results), 3 replicates, MIC recorded at 48 h
[20] = read-out: MIC, C. krusei ATCC 6258, Table 3b (additional results), 3 replicates, MIC recorded at 48 h
[21] = read-out: Concentration at 90% Inhibition Rs, Rhizoctonia solani, mycelial plugs, growth inhibition at 48 hours vs 2% DMSO control
[22] = read-out: Concentration at 90% Inhibition Fv, Fusarium virguliforme, growth inhibition at 48 hours vs 2% DMSO control
[23] = read-out: Concentration at 90% Inhibition Cg, Collectotrichum graminicola
[24] = read-out: Concentration at 90% Inhibition Bc, Botrtyis cinerea
[25] = read-out: MIC, C. albicans ATCC 90028, Table 3b (additional results), 3 replicates, MIC recorded at 48 h
[26] = read-out: Concentration at 90% Inhibition Dm, Diplodia maydis
[27] = read-out: Concentration at 90% Inhibition St, Septoria tritici

| Compound | IC50 (fungal (fACC2)) [nM] | IC50 (human (hACC2)) [nM] | IC90 [1, 8] [µg/mL] | MIC (C. parapsilosis; [9]) [µg/mL] | MIC (C. krusei; [10]) [µg/mL] | IC90 (Rhizoctonia solani (Rs); [11]) [µg/mL] | IC90 [2, 12] [µg/mL] | IC90 [3, 7] [µg/mL] | IC90 [4, 13] [µg/mL] | IC90 (Botrtyis cinerea (Bc); [14]) [µg/mL] | MIC (C. albicans; [15]) [µg/mL] | IC90 (Diplodia maydis (Dm); [16]) [µg/mL] | IC90 (Septoria tritici (St); [17]) [µg/mL] | IC90 [1, 18] [µg/mL] | MIC (C. parapsilosis; [19]) [µg/mL] | MIC (C. krusei; [20]) [µg/mL] | IC90 (Rhizoctonia solani (Rs); [21]) [µg/mL] | IC90 [2, 22] [µg/mL] | IC90 [3] [µg/mL] | IC90 [4, 23] [µg/mL] | further results |
| --- | --- | --- | --- | --- | --- | --- | --- | --- | --- | --- | --- | --- | --- | --- | --- | --- | --- | --- | --- | --- | --- |
| COc1ccc(F)cc1CCn1c(=O)n(C(C)(C)C(=O)NC(C)C)c(=O)c2c(C)c(-n3nccn3)sc21 [Compound I-268] | 1 to 5 | 10 to 40 | – | – | – | – | – | – | – | – | – | – | – | – | – | – | – | – | – | – | Concentration at 90% Inhibition Pc [1, 5]: D (compound concentration of >50 ppm at 90% inhibition of fungal pathogens); MIC, C. parapsilosis ATCC 22019 (C. parapsilosis; [6]): B (MIC of 1.01-2.0 μg/mL); MIC, C. krusei ATCC 6258 (C. krusei; [6]): A (MIC of 0.25-1.0 μg/mL); Concentration at 90% Inhibition Rs (Rhizoctonia solani (Rs); mycelial plugs, growth inhibition at 48 hours vs 2% DMSO control): B (compound concentration of 2.0 ppm at 90% inhibition of fungal pathogens); Concentration at 90% Inhibition Fv [2, 5]: AA (compound concentration of 0.08 ppm at 90% inhibition of fungal pathogens); Concentration at 90% Inhibition Fm [3, 7]: A (compound concentration of 0.4 ppm at 90% inhibition of fungal pathogens); Concentration at 90% Inhibition Cg ([4]; Collectotrichum graminicola): C (compound concentration of 10.0 ppm at 90% inhibition of fungal pathogens); Concentration at 90% Inhibition Bc (Botrtyis cinerea (Bc); Botrtyis cinerea): A (compound concentration of 0.4 ppm at 90% inhibition of fungal pathogens); MIC, C. albicans ATCC 90028 (C. albicans; [6]): B (MIC of 1.01-2.0 μg/mL); Concentration at 90% Inhibition Dm (Diplodia maydis (Dm); Diplodia maydis): C (compound concentration of 10.0 ppm at 90% inhibition of fungal pathogens); Concentration at 90% Inhibition St (Septoria tritici (St); Septoria tritici): D (compound concentration of >50 ppm at 90% inhibition of fungal pathogens) |
| Cc1c(-n2nccn2)sc2c1c(=O)n(C(C)(C)C(=O)NC(C)C)c(=O)n2C[C@H](OCCC#N)c1ccccc1O [Compound I-271] | 0.3 to 1 | 5 to 10 | > 50 | 2.01 to 4 (≈ 3.55 to 7.07 µM) | 2.01 to 4 (≈ 3.55 to 7.07 µM) | 10 (≈ 17.7 µM) | 2 (≈ 3.54 µM) | 2 (≈ 3.54 µM) | > 50 | 10 (≈ 17.7 µM) | 2.01 to 4 (≈ 3.55 to 7.07 µM) | > 50 | > 50 | – | – | – | – | – | – | – | – |
| CC(=O)Oc1ccccc1[C@H](Cn1c(=O)n(C(C)(C)C(=O)NC(C)C)c(=O)c2c(C)c(-n3nccn3)sc21)OCCC#N [Compound I-272] | 0.3 to 1 | 1 to 5 | > 50 | 1.01 to 2 (≈ 1.66 to 3.29 µM) | 1.01 to 2 (≈ 1.66 to 3.29 µM) | 2 (≈ 3.29 µM) | 0.4 (≈ 0.658 µM) | 0.08 (≈ 0.132 µM) | 2 (≈ 3.29 µM) | 2 (≈ 3.29 µM) | 1.01 to 2 (≈ 1.66 to 3.29 µM) | 10 (≈ 16.5 µM) | > 50 | – | – | – | – | – | – | – | – |
| CCOC(=O)c1ccccc1[C@H](Cn1c(=O)n(C(C)(C)C(=O)NC(C)C)c(=O)c2c(C)c(-n3nccn3)sc21)OCCC#N [Compound I-275] | 0.3 to 1 | > 40 | – | – | – | – | – | – | – | – | – | – | – | > 50 | 2.01 to 4 (≈ 3.23 to 6.43 µM) | 2.01 to 4 (≈ 3.23 to 6.43 µM) | 10 (≈ 16.1 µM) | 2 (≈ 3.22 µM) | 2 (≈ 3.22 µM) | > 50 | IC90 (Botrtyis cinerea (Bc); [24]): 10 µg/mL (≈ 16.1 µM); MIC (C. albicans; [25]): 2.01 to 4 µg/mL (≈ 3.23 to 6.43 µM); IC90 (Diplodia maydis (Dm); [26]): > 50 µg/mL; IC90 (Septoria tritici (St); [27]): > 50 µg/mL |
| CCc1ccc(F)cc1CCn1c(=O)n(C(C)(C)C(=O)NC(C)C)c(=O)c2c(C)c(-n3nccn3)sc21 [Compound I-276] | 0.3 to 1 | 5 to 10 | – | – | – | – | – | – | – | – | – | – | – | > 50 | 2.01 to 4 (≈ 3.82 to 7.6 µM) | 1.01 to 2 (≈ 1.92 to 3.8 µM) | 10 (≈ 19 µM) | 0.08 (≈ 0.152 µM) | 0.08 (≈ 0.152 µM) | 2 (≈ 3.8 µM) | IC90 (Botrtyis cinerea (Bc); [24]): 2 µg/mL (≈ 3.8 µM); MIC (C. albicans; [25]): 2.01 to 4 µg/mL (≈ 3.82 to 7.6 µM); IC90 (Diplodia maydis (Dm); [26]): 2 µg/mL (≈ 3.8 µM); IC90 (Septoria tritici (St); [27]): > 50 µg/mL |
| Cc1c(-n2nccn2)sc2c1c(=O)n(C(C)(C)C(=O)NC(C)C)c(=O)n2CCc1cc(F)ccc1OCc1ccccc1 [Compound I-277] | 1 to 5 | 10 to 40 | – | – | – | – | – | – | – | – | – | – | – | > 50 | 1.01 to 2 (≈ 1.67 to 3.31 µM) | 1.01 to 2 (≈ 1.67 to 3.31 µM) | > 50 | 2 (≈ 3.31 µM) | 2 (≈ 3.31 µM) | > 50 | IC90 (Botrtyis cinerea (Bc); [24]): > 50 µg/mL; MIC (C. albicans; [25]): 1.01 to 2 µg/mL (≈ 1.67 to 3.31 µM); IC90 (Diplodia maydis (Dm); [26]): > 50 µg/mL; IC90 (Septoria tritici (St); [27]): > 50 µg/mL |
| Cc1c(-n2nccn2)sc2c1c(=O)n(C(C)(C)C(=O)NC(C)C)c(=O)n2CCc1cc(F)ccc1CCCC#N [Compound I-278] | 1 to 5 | 10 to 40 | > 50 | 2.01 to 4 (≈ 3.55 to 7.07 µM) | 1.01 to 2 (≈ 1.79 to 3.54 µM) | 10 (≈ 17.7 µM) | 0.4 (≈ 0.707 µM) | 0.4 (≈ 0.707 µM) | 10 (≈ 17.7 µM) | 2 (≈ 3.54 µM) | 2.01 to 4 (≈ 3.55 to 7.07 µM) | 2 (≈ 3.54 µM) | > 50 | – | – | – | – | – | – | – | – |
